Measured values: PMC10135057, “Molecular Modification of Kex2 P1’ Site Enhances Expression and Druggability of Fungal Defensin” (Antibiotics, 2023)
Several values for one entry are separate records, joined by “and”; a condition that tells them apart may be missing. Equal entries are not always repeated.

Tests used:
S. aureus ATCC 25923 = test: microbe, parasite or virus in culture; assay type: cell-based, Staphylococcus aureus; conditions: Staphylococcus aureus, ATCC25923
Method: (§1) The minimal inhibitory concentrations (MICs) assay was performed according to the CLSI procedures with the final peptide concentrations of 256, 128, 64, 32, 16, 8, 4, 2, 1, and 0.5 μg/mL, respectively. All tests were conducted in triplicate.

S. aureus CVCC 546 = test: microbe, parasite or virus in culture; assay type: cell-based, Staphylococcus aureus; conditions: Staphylococcus aureus, CVCC546
Method: as §1

S. aureus E48 = test: microbe, parasite or virus in culture; assay type: cell-based, Staphylococcus aureus; conditions: Staphylococcus aureus, E48
Method: as §1

[1] = tested on: Escherichia coli ATCC 25922; test: microbe, parasite or virus in culture; assay type: cell-based; conditions: Escherichia coli, ATCC25922
Method: as §1

[2] = tested on: Staphylococcus aureus ATCC 43300; test: microbe, parasite or virus in culture; assay type: cell-based; conditions: Staphylococcus aureus, ATCC43300
Method: as §1

S. aureus ATCC 43300 [3] = test: Stability in simulated gastric fluid (MIC after treatment); assay type: in vitro ADME, Staphylococcus aureus; conditions: 1 h, MIC vs S. aureus ATCC 43300, triplicate
Method: (§2) The tolerance of FNZ to temperature and pH was evaluated. The stability of FNZ in simulated gastric fluid, artificial intestinal fluid and mouse serum was carried out as previously described. […] All assays were conducted in triplicate.

S. aureus ATCC 43300 [4] = test: pH stability (MIC after pH treatment); assay type: physicochemical, Staphylococcus aureus; conditions: MIC vs S. aureus ATCC 43300, triplicate
Method: as §2

S. aureus ATCC 43300 [5] = test: microbe, parasite or virus in culture; assay type: cell-based, Staphylococcus aureus
Method: The effects of combination were evaluated by calculating the FICI. FICI ≤ 0.5 was defined as synergy, 0.5 < FICI ≤ 1 was defined as additivity, 1 < FICI ≤ 4 was defined as indifference, and FICI > 4 was defined as antagonism.

S. aureus ATCC 43300 [6] = test: Stability in artificial intestinal fluid (MIC after treatment); assay type: in vitro ADME, Staphylococcus aureus; conditions: 10 min, MIC vs S. aureus ATCC 43300, triplicate
Method: as §2

[7] = tested on: Pseudomonas aeruginosa CICC 20625; test: Minimal inhibitory concentration (MIC); assay type: cell-based; conditions: CICC20625, CLSI procedure, triplicate
Method: as §1

[8] = tested on: Salmonella enterica ATCC 13076; test: Minimal inhibitory concentration (MIC); assay type: cell-based; conditions: ATCC13076, CLSI procedure, triplicate
Method: as §1

S. aureus ATCC 43300 [9] = test: Bactericidal kinetics (time-killing curves); assay type: cell-based, Staphylococcus aureus; conditions: 2× MIC, within 2 h; S. aureus ATCC 43300, 10^6 CFU/mL
Method: The S. aureus ATCC 43300 in logarithmic growth stage was diluted to a final concentration of 10^6 CFU/mL. […] Samples were taken at 0, 0.5, 1, 2, 4, 6, 8, 10, 20, and 24 h, serially diluted, and visible colonies were counted on MHA plates.

[10] = tested on: S. epidermidis ATCC 12228; test: microbe, parasite or virus in culture; assay type: cell-based, Staphylococcus epidermidis; conditions: Staphylococcus epidermidis, ATCC12228
Method: as §1

S. aureus ATCC 43300 [11] = test: Thermal stability (MIC after heat treatment); assay type: physicochemical, Staphylococcus aureus; conditions: MIC vs S. aureus ATCC 43300, triplicate
Method: as §2

S. aureus ATCC 43300 [12] = test: Stability in mouse serum (MIC after treatment); assay type: in vitro ADME, Staphylococcus aureus; conditions: mouse serum (25%), 1–4 h; MIC vs S. aureus ATCC 43300; triplicate
Method: as §2

S. aureus ATCC 43300 [13] = test: Salts stability (MIC after incubation with Na+ or Mg2+); assay type: cell-based, Staphylococcus aureus; conditions: for MIC: read-out: MIC after treatment
S. aureus ATCC 43300 [14] = test: Post-antibiotic effect (PAE); assay type: cell-based, Staphylococcus aureus; conditions: 2× MIC, 2 h exposure, 10^8 CFU/mL S. aureus ATCC 43300, 1000-fold dilution
Source text: After the exposed time, the bacteria suspension was reconstructed by dilution to 1000 times with MHB medium to remove the influence of peptides and antibiotics. Samples were taken every hour, and then coated on MHA plate after gradient dilution. The calculation formula was from previous studies.

[15] = 50 mM Mg2+, 37 °C, 1 h, MIC vs S. aureus ATCC 43300, triplicate
[16] = 100 mM Mg2+, 37 °C, 1 h, MIC vs S. aureus ATCC 43300, triplicate
[17] = 100 mM Na+, 37 °C, 1 h, MIC vs S. aureus ATCC 43300, triplicate
[18] = 150 mM Mg2+, 37 °C, 1 h, MIC vs S. aureus ATCC 43300, triplicate
[19] = 150 mM Na+, 37 °C, 1 h, MIC vs S. aureus ATCC 43300, triplicate
[20] = 300 mM Mg2+, 37 °C, 1 h, MIC vs S. aureus ATCC 43300, triplicate
[21] = 300 mM Na+, 37 °C, 1 h, MIC vs S. aureus ATCC 43300, triplicate
[22] = 500 mM Mg2+, 37 °C, 1 h, MIC vs S. aureus ATCC 43300, triplicate
[23] = 500 mM Na+, 37 °C, 1 h, MIC vs S. aureus ATCC 43300, triplicate

In the case of CN[C@H](CC(C)C)C(=O)N[C@H]1C(=O)N[C@@H](CC(N)=O)C(=O)N[C@H]2C(=O)N[C@H]3C(=O)N[C@H](C(=O)N[C@H](C(=O)O)c4cc(O)cc(O)c4-c4cc3ccc4O)[C@H](O)c3ccc(c(Cl)c3)Oc3cc2cc(c3O[C@@H]2O[C@H](CO)[C@@H](O)[C@H](O)[C@H]2O[C@H]2C[C@](C)(N)[C@H](O)[C@H](C)O2)Oc2ccc(cc2Cl)[C@H]1O [Vancomycin, vancomycin], the MIC (S. aureus ATCC 25923) is reported as 4 µg/mL and 2.69 µM, the MIC (S. aureus CVCC 546) is reported as 1 µg/mL and 0.67 µM and the MIC (S. aureus E48) is reported as 1 µg/mL and 0.67 µM. The MIC [1] was 128 µg/mL and 86 µM, the MIC [2] was 1 µg/mL and 0.67 µM and the MIC after treatment (S. aureus ATCC 43300 [3]) was 1 μg/mL and 0.67 μM. For the same compound, the MIC after treatment (S. aureus ATCC 43300 [4]; pH 2) was 1 μg/mL and 0.67 μM, the MIC after treatment (S. aureus ATCC 43300 [4]; pH 4) was 1 μg/mL and 0.67 μM and the MIC after treatment (S. aureus ATCC 43300 [4]; pH 6) was 1 μg/mL and 0.67 μM. The MIC after treatment (S. aureus ATCC 43300 [4]; pH 8) was 1 μg/mL and 0.67 μM, the MIC after treatment (S. aureus ATCC 43300 [4]; pH 10) was 1 μg/mL and 0.67 μM and the MIC (S. aureus ATCC 43300 [5]; Staphylococcus aureus, ATCC43300, 16 h, read-out: MICa (MIC of drug alone)) was 1 µg/mL. For the same compound, the “Combination effect with FNZ (in words)” value (S. aureus ATCC 43300 [5]; checkerboard, S. aureus ATCC 43300) was “synergistic effect”, the FIC (S. aureus ATCC 43300 [5]; combination FNZ + Van, S. aureus ATCC 43300) was 0.125 and the “MICc (MIC of drug used in combination)” value (S. aureus ATCC 43300 [5]; combination FNZ + Van, S. aureus ATCC 43300, checkerboard, 37 °C, 16 h) was 0.125 µg/mL. For the same compound, the “FICI (fractional inhibitory concentration index)” value (S. aureus ATCC 43300 [5]; combination of FNZ with the named antibiotic, S. aureus ATCC 43300, ≤0.5 synergy, 0.5-1 additivity, 1-4 indifference, >4 antagonism) was 0.25 and < 0.5, the MIC after treatment (S. aureus ATCC 43300 [6]) was 1 μg/mL and 0.67 μM and the MIC [7] was > 128 µg/mL and > 86 µM. The MIC [8] was > 128 µg/mL and > 86 µM, the “Decrease of bacterial counts (log10 CFU/mL)” value (S. aureus ATCC 43300 [9]) was 0.216 log10 CFU/mL and the MIC [10] was 1 µg/mL and 0.67 µM. The MIC after treatment (S. aureus ATCC 43300 [11]; 20 °C for 1 h) was 1 μg/mL and 0.67 μM, the MIC after treatment (S. aureus ATCC 43300 [11]; 40 °C for 1 h) was 1 μg/mL and 0.67 μM and the MIC after treatment (S. aureus ATCC 43300 [11]; 60 °C for 1 h) was 1 μg/mL and 0.67 μM. The MIC after treatment (S. aureus ATCC 43300 [11]; 80 °C for 1 h) was 1 μg/mL and 0.67 μM, the MIC after treatment (S. aureus ATCC 43300 [11]; 100 °C for 1 h) was 1 μg/mL and 0.67 μM and the MIC after treatment (S. aureus ATCC 43300 [12]) was 1 μg/mL and 0.67 μM. For the same compound, the MIC after treatment (S. aureus ATCC 43300 [13]; [15]) was 1 µg/mL, the MIC (S. aureus ATCC 43300 [13]; [15]) was 0.67 µM and the MIC after treatment (S. aureus ATCC 43300 [13]; [16]) was 1 µg/mL. The MIC (S. aureus ATCC 43300 [13]; [16]) was 0.67 µM, the MIC after treatment (S. aureus ATCC 43300 [13]; [17]) was 1 µg/mL and the MIC (S. aureus ATCC 43300 [13]; [17]) was 0.67 µM. The MIC after treatment (S. aureus ATCC 43300 [13]; [18]) was 1 µg/mL, the MIC (S. aureus ATCC 43300 [13]; [18]) was 0.67 µM and the MIC after treatment (S. aureus ATCC 43300 [13]; [19]) was 1 µg/mL. The MIC (S. aureus ATCC 43300 [13]; [19]) was 0.67 µM, the MIC after treatment (S. aureus ATCC 43300 [13]; [20]) was 1 µg/mL and the MIC (S. aureus ATCC 43300 [13]; [20]) was 0.67 µM. For the same compound, the MIC after treatment (S. aureus ATCC 43300 [13]; [21]) was 1 µg/mL, the MIC (S. aureus ATCC 43300 [13]; [21]) was 0.67 µM and the MIC after treatment (S. aureus ATCC 43300 [13]; [22]) was 1 µg/mL. It also gave an MIC (S. aureus ATCC 43300 [13]; [22]) of 0.67 µM, an MIC after treatment (S. aureus ATCC 43300 [13]; [23]) of 1 µg/mL and an MIC (S. aureus ATCC 43300 [13]; [23]) of 0.67 µM. For the same compound, the MIC (S. aureus ATCC 43300 [13]; Staphylococcus aureus, ATCC43300, 1 h) was 1 µg/mL and 0.67 µM and the PAE (S. aureus ATCC 43300 [14]) was 1.3 h.
